Assay results as given in ChEMBL document CHEMBL4011582, “Human drug-induced liver injury severity is highly associated with dual inhibition of liver mitochondrial function and bile salt export pump” (Hepatology, 2014).
Each block holds one compound with its values, some of them ahead of it.

How the values were obtained:
[1] = clinical; details: human
[2] = target: T1, Bile salt export pump (Homo sapiens, UniProt O95342); test: Inhibition of recombinant human BSEP expressed in baculovirus infected sf9 cell plasma membrane vesicles assessed as reduction in ATP-dependent [3H]-taurocholate uptake in to vesicles preincubated for 10 mins followed by ATP addition measured after 10 to 15 mins by TopCount method; assay type: ADME
T1 sequence (O95342 whole entry): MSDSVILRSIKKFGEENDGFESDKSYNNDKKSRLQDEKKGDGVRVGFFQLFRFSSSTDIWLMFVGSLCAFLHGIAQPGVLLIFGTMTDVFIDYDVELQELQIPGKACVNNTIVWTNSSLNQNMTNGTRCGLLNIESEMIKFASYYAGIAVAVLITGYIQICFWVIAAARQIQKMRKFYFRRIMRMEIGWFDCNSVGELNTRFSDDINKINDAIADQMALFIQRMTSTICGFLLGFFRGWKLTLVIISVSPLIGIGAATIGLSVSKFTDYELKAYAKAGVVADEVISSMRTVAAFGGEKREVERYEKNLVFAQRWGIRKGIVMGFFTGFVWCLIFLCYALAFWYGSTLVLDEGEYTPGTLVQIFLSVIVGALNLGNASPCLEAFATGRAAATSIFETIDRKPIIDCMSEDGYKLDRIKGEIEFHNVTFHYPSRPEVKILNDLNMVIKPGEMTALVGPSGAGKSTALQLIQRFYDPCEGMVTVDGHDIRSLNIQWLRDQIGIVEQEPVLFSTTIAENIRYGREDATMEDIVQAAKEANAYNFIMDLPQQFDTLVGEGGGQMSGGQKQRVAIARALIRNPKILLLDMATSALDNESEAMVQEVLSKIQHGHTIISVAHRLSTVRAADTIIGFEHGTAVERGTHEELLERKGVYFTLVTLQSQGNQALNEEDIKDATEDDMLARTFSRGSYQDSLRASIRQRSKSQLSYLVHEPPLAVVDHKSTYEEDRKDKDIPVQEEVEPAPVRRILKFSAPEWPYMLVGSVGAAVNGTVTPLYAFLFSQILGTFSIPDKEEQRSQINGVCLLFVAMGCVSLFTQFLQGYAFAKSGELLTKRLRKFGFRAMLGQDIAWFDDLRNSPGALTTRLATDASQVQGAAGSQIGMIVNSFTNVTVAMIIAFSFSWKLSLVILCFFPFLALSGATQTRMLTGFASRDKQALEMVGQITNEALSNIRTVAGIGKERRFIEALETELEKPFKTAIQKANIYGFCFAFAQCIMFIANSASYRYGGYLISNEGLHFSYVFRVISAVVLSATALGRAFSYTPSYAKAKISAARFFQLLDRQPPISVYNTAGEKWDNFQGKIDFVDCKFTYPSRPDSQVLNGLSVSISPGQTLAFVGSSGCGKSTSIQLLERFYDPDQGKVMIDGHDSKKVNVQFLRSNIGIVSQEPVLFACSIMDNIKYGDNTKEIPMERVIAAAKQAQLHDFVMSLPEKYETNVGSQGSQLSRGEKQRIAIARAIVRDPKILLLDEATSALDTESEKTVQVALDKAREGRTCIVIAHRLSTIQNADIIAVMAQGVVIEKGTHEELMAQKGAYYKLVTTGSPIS

[3] = target: T1, Bile salt export pump; test: Inhibition of recombinant human BSEP expressed in baculovirus infected sf21 cell plasma membrane vesicles assessed as reduction in ATP-dependent [3H]-taurocholate uptake in to vesicles after 5 mins by microbeta filtration method; assay type: ADME
[4] = tested on: Liver; assay type: ADME, mitochondria, Rattus norvegicus, Sprague-Dawley
[5] = target: T1, Bile salt export pump; test: Inhibition of BSEP (unknown origin); assay type: ADME
[6] = target: T1, Bile salt export pump; assay type: ADME; details: read-out: IC50
[7] = Induction of mitochondrial dysfunction in liver mitochondria (unknown origin) assessed as inhibition of mitochondrial respiration

- Cmax [1]: 5.06 µM
- IC50 [6]: 90 µM
Structure (SMILES): O=c1n(CCCN2CCN(c3cccc(Cl)c3)CC2)nc2ccccn12 [TRAZODONE]
- IC50 [4]: Non-Toxic

- Cmax [1]: 2.77 µM
- IC50 [6]: 30 µM
Structure (SMILES): CC[C@H]1OC(=O)[C@H](C)C(=O)[C@H](C)[C@@H](O[C@@H]2O[C@H](C)C[C@H](N(C)C)[C@H]2O)[C@](C)(OC)C[C@@H](C)C(=O)[C@H](C)[C@H]2N(CCCCn3cnc(-c4cccnc4)c3)C(=O)O[C@]12C [TELITHROMYCIN]
- IC50 [4]: Non-Toxic

- Cmax [1]: 64.5 µM
Structure (SMILES): CN[C@@H]1[C@H](O[C@H]2[C@H](O[C@H]3[C@H](O)[C@@H](O)[C@H](N=C(N)N)[C@@H](O)[C@@H]3N=C(N)N)O[C@@H](C)[C@]2(O)C=O)O[C@@H](CO)[C@H](O)[C@H]1O [STREPTOMYCIN]
- IC50 [3]: > 1000 µM
- IC50 [4]: Non-Toxic

- Cmax [1]: 44.2 µM
- IC50 [6]: 11 µM
Structure (SMILES): O=C1C(CC[S+]([O-])c2ccccc2)C(=O)N(c2ccccc2)N1c1ccccc1 (stereo unspecified) [SULFINPYRAZONE]
- IC50 [4]: Non-Toxic

The remaining lines, values behind:

Structure (SMILES): CN(CCOc1ccc(CC2SC(=O)NC2=O)cc1)c1ccccn1 (stereo unspecified) [ROSIGLITAZONE]
- Cmax [1]: 1.04 µM
- IC50 [2]: 3.75 µM

Structure (SMILES): C[N+](C)(C)CC(=O)O [BETAINE]
- IC50 [3]: > 1000 µM
- Cmax [1]: 599 µM
- IC50 [4]: Non-Toxic

Structure (SMILES): CCOC(=O)[C@@]1(CCCCCCOc2ccc(Cl)cc2)CO1 [ETOMOXIR]
- IC50 [5]: 11.8 µM

Structure (SMILES): C[C@@H]1C[C@H]2[C@@H]3CCC4=CC(=O)C=C[C@]4(C)[C@@]3(Cl)[C@@H](O)C[C@]2(C)[C@@]1(O)C(=O)CCl [MOMETASONE]
- Cmax [1]: 0.0003 µM
- IC50 [4]: Non-Toxic
- IC50 [6]: 9.3 µM

Structure (SMILES): CN(C)C(=O)C(CCN1CCC(O)(c2ccc(Cl)cc2)CC1)(c1ccccc1)c1ccccc1 [LOPERAMIDE]
- Cmax [1]: 0.008 µM
- IC50 [4]: Non-Toxic
- IC50 [6]: 67 µM

Structure (SMILES): C[C@H](CCC(=O)O)[C@H]1CC[C@H]2[C@@H]3[C@H](O)C[C@@H]4C[C@H](O)CC[C@]4(C)[C@H]3CC[C@]12C [CHENODIOL]
- Cmax [1]: 8 µM
- IC50 [4]: Non-Toxic
- IC50 [6]: 10.6 µM

Structure (SMILES): CO[C@H]1/C=C/O[C@@]2(C)Oc3c(C)c(O)c4c(O)c(cc(O)c4c3C2=O)NC(=O)/C(C)=C\C=C\[C@H](C)[C@H](O)[C@@H](C)[C@@H](O)[C@@H](C)[C@H](OC(C)=O)[C@@H]1C [RIFAMYCIN]
- Cmax [1]: 2.78 µM
- IC50 [4]: Non-Toxic
- IC50 [6]: 9.5 µM

Structure (SMILES): COCC(=O)NC/C=C/c1ccc2ncnc(Nc3ccc(Oc4ccc(C)nc4)c(C)c3)c2c1 [CP-724714]
- IC50 [7]: 45 nmol/mg
